The target of the assay is MCH receptor (Homo sapiens, UniProt Q99705). Nature of the assay: High throughput functional screening FLIPR/FDSS6000: inhibition of MCH-evoked intracellular Ca2+ changes. The assay is classed as cell-based. The settings on record: class by percent of control at 10^−7 M or by IC50; read-out: class. In short, it runs like this:
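Antagonism was measured as inhibition of calcium responses to 50 nM MCH, monitored 290 s at ex 488/em 530 nm on FLIPR or FDSS6000. Beforehand, cells bearing a constitutively active MCH receptor received Fluo4-AM (4 μM, 1 h, 37 °C) with probenecid, and test compound for 3 min.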

In the case of `CN(C)c1nc(N[C@H]2CC[C@@H](C(=O)NCc3ccccc3OC(F)(F)F)CC2)nc2ccccc12` [Example 1167, cis-4-{[4-(dimethylamino)quinazolin-2-yl]amino}-N-[2-(trifluoromethoxy)benzyl]cyclohexanecarboxamide], the IC50 was less than 50 nM. The same measure for `CN(C)c1nc(N[C@H]2CC[C@@H](C(=O)NCc3ccc(F)c(F)c3F)CC2)nc2ccccc12` [Example 1169, cis-4-{[4-(dimethylamino)quinazolin-2-yl]amino}-N-(2,3,4-trifluorobenzyl)cyclohexanecarboxamide]: less than 50 nM; for `CN(C)c1nc(N[C@H]2CC[C@@H](C(=O)NCc3cc(F)c(F)cc3F)CC2)nc2ccccc12` [Example 1170, cis-4-{[4-(dimethylamino)quinazolin-2-yl]amino}-N-(2,4,5-trifluorobenzyl)cyclohexanecarboxamide]: less than 50 nM. The same measure for `CN(C)c1nc(N[C@H]2CC[C@@H](C(=O)NCc3cc(F)c(F)c(F)c3)CC2)nc2ccccc12` [Example 1171, cis-4-{[4-(dimethylamino)quinazolin-2-yl]amino}-N-(3,4,5-trifluorobenzyl)cyclohexanecarboxamide]: less than 50 nM; for `CN(C)c1nc(N[C@H]2CC[C@@H](C(=O)NCc3c(F)ccc(F)c3F)CC2)nc2ccccc12` [Example 1172, cis-4-{[4-(dimethylamino)quinazolin-2-yl]amino}-N-(2,3,6-trifluorobenzy)cyclohexanecarboxamide]: less than 50 nM. Take `CN(C)c1nc(N[C@H]2CC[C@@H](C(=O)NCc3cc(F)cc(C(F)(F)F)c3)CC2)nc2ccccc12` [Example 1173, cis-4-{[4-(dimethylamino)quinazolin-2-yl]amino}-N-[3-fluoro-5-(trifluoromethyl)benzyl]cyclohexanecarboxamide]: the IC50 was less than 50 nM. The same measure for `CN(C)c1nc(N[C@H]2CC[C@@H](C(=O)NCc3ccc(F)cc3C(F)(F)F)CC2)nc2ccccc12` [Example 1174, cis-4-{[4-(dimethylamino)quinazolin-2-yl]amino}-N-[4-fluoro-2-(trifluoromethyl)benzyl]cyclohexanecarboxamide]: less than 50 nM.

Take `CN(C)c1nc(N[C@H]2CC[C@@H](C(=O)NCc3ccc(C(F)(F)F)cc3F)CC2)nc2ccccc12` [Example 1175, cis-4-{[4-(dimethylamino)quinazolin-2-yl]amino}-N-[2-fluoro-4-(trifluoromethyl)benzyl]cyclohexanecarboxamide]: the IC50 is less than 50 nM. The same measure for `CN(C)c1nc(N[C@H]2CC[C@@H](C(=O)NCc3ccc(F)c(C(F)(F)F)c3)CC2)nc2ccccc12` [Example 1176, cis-4-{[4-(dimethylamino)quinazolin-2-yl]amino}-N-[4-fluoro-3-(trifluoromethyl)benzyl]cyclohexanecarboxamide]: less than 50 nM; for `CN(C)c1nc(N[C@H]2CC[C@@H](C(=O)NCc3cccc(C(F)(F)F)c3F)CC2)nc2ccccc12` [Example 1177, cis-4-{[4-(dimethylamino)quinazolin-2-yl]amino}-N-[2-fluoro-3-(trifluoromethyl)benzyl]cyclohexanecarboxamide]: less than 50 nM; for `CN(C)c1nc(N[C@H]2CC[C@@H](C(=O)NCc3ccc(Cl)c(C(F)(F)F)c3)CC2)nc2ccccc12` [Example 1178, cis-N-[4-chloro-3-(trifluoromethyl)benzyl]-4-{[4-(dimethylamino)quinazolin-2-yl]amino}cyclohexanecarboxamide]: less than 50 nM.

Take `CN(C)c1nc(N[C@H]2CC[C@@H](C(=O)NCc3c(F)cccc3Cl)CC2)nc2ccccc12` [Example 1179, cis-N-(2-chloro-6-fluorobenzyl)-4-{[4-(dimethylamino)quinazolin-2-yl]amino}cyclohexanecarboxamide]: the IC50 was less than 50 nM.

Turning to `CN(C)c1nc(N[C@H]2CC[C@@H](C(=O)NCc3ccc(F)c(Cl)c3)CC2)nc2ccccc12` [Example 1181, cis-N-(3-chloro-4-fluorobenzyl)-4-{[4-(dimethylamino)quinazolin-2-yl]amino}cyclohexanecarboxamide], the IC50 is less than 50 nM. For the molecule `CN(C)c1nc(N[C@H]2CC[C@@H](C(=O)NCc3ccc(F)cc3Cl)CC2)nc2ccccc12` [Example 1182, cis-N-(2-chloro-4-fluorobenzyl)-4-{[4-(dimethylamino)quinazolin-2-yl]amino}cyclohexanecarboxamide], the IC50 is less than 50 nM. With `CN(C)c1nc(N[C@H]2CC[C@@H](C(=O)NCc3cc(C(F)(F)F)ccc3Cl)CC2)nc2ccccc12` [Example 1183, cis-N-[2-chloro-5-(trifluoromethyl)benzyl]-4-{[4-(dimethylamino)quinazolin-2-yl]amino}cyclohexanecarboxamide] the figure was less than 50 nM; with `CN(C)c1nc(N[C@H]2CC[C@@H](C(=O)NCc3ccccc3OC(F)F)CC2)nc2ccccc12` [Example 1184, cis-N-[2-(difluoromethoxy)benzyl]-4-{[4-(dimethylamino)quinazolin-2-yl]amino}cyclohexanecarboxamide], less than 50 nM; with `CN(C)c1nc(N[C@H]2CC[C@@H](C(=O)NCc3cccc(OC(F)F)c3)CC2)nc2ccccc12` [Example 1185, cis-N-[3-(difluoromethoxy)benzyl]-4-{[4-(dimethylamino)quinazolin-2-yl]amino}cyclohexanecarboxamide], less than 50 nM. Turning to `CN(C)c1nc(N[C@H]2CC[C@@H](C(=O)NCc3cccc(OC(F)(F)F)c3)CC2)nc2ccccc12` [Example 1186, cis-4-{[4-(dimethylamino)quinazolin-2-yl)amino}-N-[3-(trifluoromethoxy)benzyl]cyclohexanecarboxamide], the IC50 was less than 50 nM. The same measure for `Cc1cc(Cl)cc(Cl)c1CNC(=O)[C@H]1CC[C@@H](Nc2nc(N(C)C)c3ccccc3n2)CC1` [Example 1187, cis-N-(2,4-dichloro-6-methylbenzyl)-4-{[4-(dimethylamino)quinazolin-2-yl]amino}cyclohexanecarboxamide]: 50 to 200 nM; for `COc1cccc(OC)c1CNC(=O)[C@H]1CC[C@@H](Nc2nc(N(C)C)c3ccccc3n2)CC1` [Example 1188, cis-N-(2,6-dimethoxybenzyl)-4-{[4-(dimethylamino)quinazolin-2-yl]amino}cyclohexanecarboxamide]: less than 50 nM. With `C[C@@H](NC(=O)[C@H]1CC[C@@H](Nc2nc(N(C)C)c3ccccc3n2)CC1)c1ccccc1` [Example 1189, cis-4-{[4-(dimethylamino)quinazolin-2-yl]amino}-N-[(1R)-1-phenylethyl]cyclohexanecarboxamide] the figure was less than 50 nM; with `COc1ccc([C@H](C)NC(=O)[C@H]2CC[C@@H](Nc3nc(N(C)C)c4ccccc4n3)CC2)cc1` [Example 1190, cis-4-{[4-(dimethylamino)quinazolin-2-yl]amino}-N-[(1S)-1-(4-methoxyphenyl)ethyl]cyclohexanecarboxamide], less than 50 nM; with `COc1ccc(C(NC(=O)[C@H]2CC[C@@H](Nc3nc(N(C)C)c4ccccc4n3)CC2)c2ccc(OC)cc2)cc1` [Example 1192, cis-N-[bis(4-methoxyphenyl)methyl]-4-{[4-(dimethylamino)quinazolin-2-yl]amino}cyclohexanecarboxamide], less than 50 nM. The same measure for `CN(C)c1nc(N[C@H]2CC[C@@H](C(=O)NCc3ccccc3C(F)(F)F)CC2)nc2ccccc12` [Example 1193, cis-4-{[4-(dimethylamino)quinazolin-2-yl]amino}-N-[2-(trifluoromethyl)benzyl]cyclohexanecarboxamide]: less than 50 nM.

Take `CN(C)c1nc(N[C@H]2CC[C@@H](C(=O)NC3c4ccccc4-c4ccccc43)CC2)nc2ccccc12` [Example 1194, cis-4-{[4-(dimethylamino)quinazolin-2-yl]amino}-N-9H-fluoren-9-ylcyclohexanecarboxamide]: the IC50 is less than 50 nM.

Turning to `CN(C)c1nc(N[C@H]2CC[C@@H](C(=O)NCc3ccc(S(C)(=O)=O)cc3)CC2)nc2ccccc12` [Example 1195, cis-4-{[4-(dimethylamino)quinazolin-2-yl]amino}-N-[4-(methylsulfonyl)benzyl]cyclohexanecarboxamide], the IC50 was less than 50 nM. The same measure for `CN(C)c1nc(N[C@H]2CC[C@@H](C(=O)Nc3ccc(Cl)nc3)CC2)nc2ccccc12` [Example 1196, cis-N-(6-chloropyridin-3-yl)-4-{[4-(dimethylamino)quinazolin-2-yl]amino}cyclohexanecarboxamide]: less than 50 nM; for `CN(C)c1nc(N[C@H]2CC[C@@H](C(=O)Nc3cccnc3Cl)CC2)nc2ccccc12` [Example 1197, cis-N-(2-chloropyridin-3-yl)-4-{[4-(dimethylamino)quinazolin-2-yl]amino}cyclohexanecarboxamide]: greater than 200 nM; for `CN(C)c1nc(N[C@H]2CC[C@@H](C(=O)Nc3nc4ccccc4[nH]3)CC2)nc2ccccc12` [Example 1198, cis-N-1H-benzimidazol-2-yl-4-{[4-(dimethylamino)quinazolin-2-yl]amino}cyclohexanecarboxamide]: greater than 200 nM. The same measure for `CN(C)c1nc(N[C@H]2CC[C@@H](C(=O)Nc3nc(C(C)(C)C)c(Br)s3)CC2)nc2ccccc12` [Example 1199, cis-N-(5-bromo-4-tert-butyl-1,3-thiazol-2-yl)-4-{[4(dimethylamino)quinazolin-2-yl]amino}cyclohexanecarboxamide]: greater than 200 nM. The same measure for `CCC(=O)Nc1cccc(C(=O)N[C@H]2CC[C@@H](Nc3nc(N(C)C)c4ccccc4n3)CC2)c1` [Example 1200, N-(cis-4-{[4-(dimethylamino)quinazolin-2-yl]amino}cyclohexyl)-3-(propionylamino)benzamide]: less than 50 nM; for `CC(C)CC(=O)Nc1cccc(C(=O)N[C@H]2CC[C@@H](Nc3nc(N(C)C)c4ccccc4n3)CC2)c1` [Example 1201, N-(cis-4-{[4-(dimethylamino)quinazolin-2-yl]amino}cyclohexyl)-3-[(3-methylbutanoyl)amino]benzamide]: 50 to 200 nM.

(Values after patent US20070010671A1, “Novel quinazoline derivatives and methods of treatment related to the use thereof” (priority 2003, published 2007).)
